Test results: patent US8173689B2 (Novartis AG, priority 2006, dated 2012)
Where two headings read alike, the source gives them in different places.

Assays:
[1] = target: T1, kinase domain of PDGFRβ (Homo sapiens, UniProt P09619); assay: Inhibition of PDGFRb kinase signaling in an in vitro biochemical assay (alphascreen); details: tested at about 1 μM; for inhibition at 1 µM: read-out: PDGFRβ percent inhibition
T1 construct: The kinase domain of PDGFRβ was assayed in 50 mM Hepes; purchased Invitrogen P3082
T1 sequence (P09619 600-962 limits assumed): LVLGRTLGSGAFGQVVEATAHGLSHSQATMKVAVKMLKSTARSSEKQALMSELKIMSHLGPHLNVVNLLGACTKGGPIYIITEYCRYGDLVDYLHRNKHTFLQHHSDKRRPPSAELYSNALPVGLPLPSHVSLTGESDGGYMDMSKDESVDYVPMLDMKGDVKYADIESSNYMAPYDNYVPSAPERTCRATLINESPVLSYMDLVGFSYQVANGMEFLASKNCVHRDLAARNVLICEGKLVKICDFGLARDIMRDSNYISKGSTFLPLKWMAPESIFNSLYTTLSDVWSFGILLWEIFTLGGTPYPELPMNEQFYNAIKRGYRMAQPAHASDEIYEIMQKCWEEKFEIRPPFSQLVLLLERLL

[2] = target: T2, full-length human CSF-1R receptor (Homo sapiens, UniProt P07333); assay: In vitro inhibition of CSF-1R receptor tyrosine phosphorylation in transfected HEK293H cells stimulated with MCSF; format: cell-based; details: HEK293-H, tested at about 1 μM, read-out: pCSF1R percent inhibition
T2 construct: transfected with the full-length human CSF-1R receptor cloned in house; expressed in transfected cells; host or cells: HEK293H (Invitrogen Cat. #11631017)
T2 sequence (P07333 20-972): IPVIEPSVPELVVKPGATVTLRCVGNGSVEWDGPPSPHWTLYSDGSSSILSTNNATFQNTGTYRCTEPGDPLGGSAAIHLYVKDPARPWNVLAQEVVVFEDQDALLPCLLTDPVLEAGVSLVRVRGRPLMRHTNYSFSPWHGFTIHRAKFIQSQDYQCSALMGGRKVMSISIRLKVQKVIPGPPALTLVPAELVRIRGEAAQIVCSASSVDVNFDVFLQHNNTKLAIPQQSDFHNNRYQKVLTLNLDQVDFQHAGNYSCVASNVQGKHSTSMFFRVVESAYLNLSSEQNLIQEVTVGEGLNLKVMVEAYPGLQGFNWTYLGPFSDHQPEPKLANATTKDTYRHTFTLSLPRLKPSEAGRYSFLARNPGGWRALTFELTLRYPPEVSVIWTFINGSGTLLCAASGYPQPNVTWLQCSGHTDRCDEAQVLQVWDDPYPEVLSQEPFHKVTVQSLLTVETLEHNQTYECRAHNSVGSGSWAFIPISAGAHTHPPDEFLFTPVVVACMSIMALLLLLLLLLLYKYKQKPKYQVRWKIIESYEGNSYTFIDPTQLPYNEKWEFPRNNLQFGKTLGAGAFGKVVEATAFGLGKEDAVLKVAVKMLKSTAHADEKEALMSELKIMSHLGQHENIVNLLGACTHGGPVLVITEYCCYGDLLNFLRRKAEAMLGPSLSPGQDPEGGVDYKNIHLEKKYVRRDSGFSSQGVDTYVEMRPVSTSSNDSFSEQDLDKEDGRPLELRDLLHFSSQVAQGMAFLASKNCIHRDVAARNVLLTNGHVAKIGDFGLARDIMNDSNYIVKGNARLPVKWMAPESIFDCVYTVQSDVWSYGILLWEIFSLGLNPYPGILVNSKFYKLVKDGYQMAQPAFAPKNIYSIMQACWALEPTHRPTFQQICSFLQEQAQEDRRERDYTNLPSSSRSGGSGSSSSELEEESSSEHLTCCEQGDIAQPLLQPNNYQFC
Protocol: The lysate was then transferred to total CSF-1R antibody coated 96-well plates that had already been blocked with 3% Blocker A from Mesoscale discovery (MSD) for 2 hours and washed afterwards. Lysates were incubated overnight at 4° C. and the plates were then washed 4× with MSD Tris Wash Buffer. […] The plates were read on the Sector 6000 instrument (MSD). Raw data was imported in Abase and EC50s calculated with XL-fit data analysis software.

[3] = target: T3, cytoplasmic domain of the human CSF-1R (Homo sapiens, UniProt P07333); assay: In vitro kinase assay for colony stimulating factor-1 receptor (AlphaScreen); format: biochemical; details: tested at about 1 μM, read-out: CSF-1R percent inhibition
T3 construct: Recombinant protein corresponding to the cytoplasmic domain of the human CSF-1R; purchased Invitrogen Corporation, Carlsbad, Calif; PV3249
T3 sequence (P07333 539-972 limits assumed): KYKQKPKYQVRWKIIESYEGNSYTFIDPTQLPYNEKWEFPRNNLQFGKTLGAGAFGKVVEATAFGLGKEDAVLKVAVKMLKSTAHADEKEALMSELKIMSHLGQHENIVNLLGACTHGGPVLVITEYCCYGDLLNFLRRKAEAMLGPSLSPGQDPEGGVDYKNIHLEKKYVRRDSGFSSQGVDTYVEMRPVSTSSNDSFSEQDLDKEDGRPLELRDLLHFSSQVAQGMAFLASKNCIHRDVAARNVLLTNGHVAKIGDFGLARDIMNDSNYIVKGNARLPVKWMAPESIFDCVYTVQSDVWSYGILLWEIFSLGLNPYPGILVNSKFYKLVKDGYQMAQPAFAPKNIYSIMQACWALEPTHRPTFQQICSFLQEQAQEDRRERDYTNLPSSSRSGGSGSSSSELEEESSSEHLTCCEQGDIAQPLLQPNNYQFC
Outline: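 4 nM enzyme, 1 μM ATP; buffer 50 mM Hepes pH 7.5, 5 mM MgCl2, 10 mM MnCl2, 1.0 mM DTT, 0.1% BSA, 0.01% Tween 80. Readout: AlphaScreen, PT66 acceptor/streptavidin donor, overnight.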

[4] = target: T4, kinase domain of cKIT (Homo sapiens, UniProt P10721); assay: Inhibition of cKIT kinase signaling in an in vitro biochemical assay (alphascreen); details: tested at about 1 μM; for inhibition at 1 µM: read-out: cKit percent inhibition
T4 construct: The kinase domain of cKIT was assayed in 50 mM Hepes; purchased Upstate 14-559
T4 sequence (P10721 589-937 limits assumed): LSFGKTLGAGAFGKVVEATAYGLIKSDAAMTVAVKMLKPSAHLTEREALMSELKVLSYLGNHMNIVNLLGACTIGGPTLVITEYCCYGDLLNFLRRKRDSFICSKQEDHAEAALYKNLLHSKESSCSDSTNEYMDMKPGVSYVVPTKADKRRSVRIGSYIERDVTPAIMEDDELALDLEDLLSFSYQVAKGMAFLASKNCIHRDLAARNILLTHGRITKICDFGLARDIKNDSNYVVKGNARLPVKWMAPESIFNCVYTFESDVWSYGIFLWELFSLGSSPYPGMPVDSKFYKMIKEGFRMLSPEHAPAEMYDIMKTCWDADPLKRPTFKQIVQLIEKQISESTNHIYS

[5] = tested on: MNFS60 (murine AML cells); assay: Cell viability assay in MCSF dependent MNFS60 cells (Cell Titer Glo); format: cell-based; details: Mus musculus, tested at about 1 μM, read-out: M-NFS-60 CP percent inhibition
Outline: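 MNFS60 cells grown with 10 ng/ml MCSF (final) were exposed for 72 hrs at 37° C., 5% CO2 to 3-fold serial compound dilutions. Viable cells were measured by Cell Titer Glo luminescence, in triplicate, and EC50s were derived by curve fitting.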

Structure (SMILES): CNC(=O)c1cc(Oc2ccc3nc(NC(C)c4cccc5c4OCCO5)oc3c2)ccn1 (centres unmarked) [Compound 125, 4-{2-[1-(2,3-Dihydro-benzo-[1,4]dioxin-5-yl)-ethylamino]-benzooxazol-6-yloxy}-pyridine-2-carboxylic acid methylamide]
- inhibition at 1 µM [1]: 0%
- inhibition at 1 µM ([2]; HEK293H cells): 45%
- inhibition at 1 µM [3]: 100%
- inhibition at 1 µM [4]: 35%
- inhibition at 1 µM ([5]; MNFS60 cells): 44%

Structure (SMILES): CNC(=O)c1cc(Oc2ccc3nc(N[C@@H]4CCCC[C@H]4NS(C)(=O)=O)sc3c2)ccn1 [Example 326, N-methyl-4-(2-((1R,2R)-2-(methylsulfonamido)cyclo-hexylamino)benzo[d]thiazol-6-yloxy)picolinamide]
- inhibition at 1 µM [1]: 7%
- inhibition at 1 µM ([2]; HEK293H cells): 81%
- inhibition at 1 µM [3]: 65%
- inhibition at 1 µM [4]: 44%
- inhibition at 1 µM ([5]; MCSF dependent MNFS60 cells): 33%

Structure (SMILES): CNC(=O)c1cc(Oc2ccc3nc(N[C@@H]4CCCC[C@H]4O)sc3c2)ccn1 [Compound 157, 4-[2-((1R,2R)-2-Hydroxy-cyclohexylamino)-benzothiazol-6-yloxy]-pyridine-2-carboxylic acid methylamide]
- PDGFRβ percent inhibition [1]: 20%
- inhibition at 1 µM ([2]; HEK293H cells): 99%
- inhibition at 1 µM [3]: 100%
- cKit percent inhibition [4]: 20%
- inhibition at 1 µM ([5]; MNFS60 cells): 100%

Structure (SMILES): CNC(=O)c1cc(Oc2ccc3nc(N[C@@H]4CCCC[C@H]4N)sc3c2)ccn1 [Example 297, 4-(2-((1R,2R)-2-aminocyclohexylamino)benzo[d]thiazol-6-yloxy)-N-methylpicolinamide]
- inhibition at 1 µM ([1]; compounds of Table 3): 9%
- inhibition at 1 µM ([2]; compounds of Table 3): 90%
- inhibition at 1 µM ([3]; compounds of Table 3): 98%
- inhibition at 1 µM ([4]; compounds of Table 3): 0%
- inhibition at 1 µM ([5]; compounds of Table 3): 42%

Structure (SMILES): CNC(=O)c1cc(Oc2ccc3nc(NCCc4ccccc4Cl)sc3c2)ccn1 [Example 319, 4-(2-(2-chlorophenylethylamino)benzo[d]thiazol-6-yloxy)-N-methylpicolinamide]
- inhibition at 1 µM [1]: 24%
- inhibition at 1 µM ([2]; HEK293H cells): 91%
- inhibition at 1 µM [3]: 100%
- inhibition at 1 µM [4]: 93%
- inhibition at 1 µM ([5]; MCSF dependent MNFS60 cells): 61%

Structure (SMILES): COc1ccc(-c2cc(Oc3ccc4nc(N[C@@H]5CCCC[C@H]5O)sc4c3)ccn2)cn1 [Cmpd 170, (1R,2R)-2-(6-(6'-methoxy-2,3'-bipyridin-4-yloxy)benzo[d]thiazol-2-ylamino)cyclohexanol]
- inhibition at 1 µM ([1]; compounds of Table 3): 23%
- inhibition at 1 µM ([2]; compounds of Table 3): 96%
- inhibition at 1 µM ([3]; compounds of Table 3): 100%
- inhibition at 1 µM ([4]; compounds of Table 3): 28%
- inhibition at 1 µM ([5]; compounds of Table 3): 100%

Structure (SMILES): CNC(=O)c1cc(Oc2ccc3nc(NCC4CCCCC4)sc3c2)ccn1 [Compound 128, 4-[2-(Cyclohexylmethyl-amino)-benzothiazol-6-yloxy]-pyridine-2-carboxylic acid methylamide]
- inhibition at 1 µM [1]: 83%
- inhibition at 1 µM ([2]; HEK293H cells): 95%
- inhibition at 1 µM [3]: 100%
- inhibition at 1 µM [4]: 90%
- inhibition at 1 µM ([5]; MNFS60 cells): 95%

Structure (SMILES): CNC(=O)c1cc(Oc2ccc3nc(NCc4cccc5c4OCCCO5)oc3c2)ccn1 [Compound 108, 4-{2-[(3,4-Dihydro-2H-benzo[b][1,4]dioxepin-6-ylmethyl)-amino]-benzooxazol-6-yloxy}-pyridine-2-carboxylic acid methylamide]
- inhibition at 1 µM [1]: 40%
- inhibition at 1 µM ([2]; HEK293H cells): 98%
- inhibition at 1 µM [3]: 99%
- inhibition at 1 µM [4]: 100%
- inhibition at 1 µM ([5]; MNFS60 cells): 100%

Structure (SMILES): CNC(=O)c1cc(Oc2ccc3nc(NCC4CCCCCC4)sc3c2)ccn1 [Compound 148, 4-[2-(Cycloheptylmethyl-amino)-benzothiazol-6-yloxy]-pyridine-2-carboxylic acid methylamide]
- inhibition at 1 µM [1]: 100%
- inhibition at 1 µM ([2]; HEK293H cells): 98%
- inhibition at 1 µM [3]: 99%
- inhibition at 1 µM [4]: 99%
- inhibition at 1 µM ([5]; MNFS60 cells): 100%

Structure (SMILES): CNC(=O)c1cc(Oc2ccc3nc(NCc4cccc(Cl)c4Cl)sc3c2)ccn1 [Compound 134, 4-[2-(2,3-Dichloro-benzylamino)-benzothiazol-6-yloxy]-pyridine-2-carboxylic acid methylamide]
- inhibition at 1 µM [1]: 0%
- inhibition at 1 µM ([2]; HEK293H cells): 93%
- inhibition at 1 µM [3]: 98%
- inhibition at 1 µM [4]: 98%
- inhibition at 1 µM ([5]; MNFS60 cells): 93%

Structure (SMILES): CNC(=O)c1cc(Oc2ccc3nc(N[C@@H]4C[C@H]5CC[C@@H]4C5)sc3c2)ccn1 [Compound 128]
- inhibition at 1 µM ([1]; compounds of Table 3): 20%
- inhibition at 1 µM ([2]; compounds of Table 3): 88%
- inhibition at 1 µM ([3]; compounds of Table 3): 100%
- inhibition at 1 µM ([4]; compounds of Table 3): 29%
- inhibition at 1 µM ([5]; compounds of Table 3): 82%

Structure (SMILES): C[C@H](Nc1nc2ccc(Oc3ccnc(-c4cnn(C)c4)c3)cc2s1)C1CCCCC1 [Cmpd 163, (S)-N-(1-cyclohexylethyl)-6-(2-(1-methyl-1H-pyrazol-4-yl)pyridin-4-yloxy)benzo[d]thiazol-2-amine]
- inhibition at 1 µM ([1]; compounds of Table 3): 39%
- inhibition at 1 µM ([2]; compounds of Table 3): 99%
- inhibition at 1 µM ([3]; compounds of Table 3): 100%
- inhibition at 1 µM ([4]; compounds of Table 3): 32%
- inhibition at 1 µM ([5]; compounds of Table 3): 100%

Structure (SMILES): CNC(=O)c1cc(Oc2ccc3nc(N[C@H](CO)C(C)C)sc3c2)ccn1 [Compound 102]
- inhibition at 1 µM ([1]; compounds of Table 3): 9%
- inhibition at 1 µM ([2]; compounds of Table 3): 88%
- inhibition at 1 µM ([3]; compounds of Table 3): 100%
- inhibition at 1 µM ([4]; compounds of Table 3): 0%
- inhibition at 1 µM ([5]; compounds of Table 3): 75%

Structure (SMILES): Nc1ncc(-c2cc(Oc3ccc4nc(N[C@@H]5CCCC[C@H]5O)sc4c3)ccn2)cn1 [Example 346, (1R,2R)-2-(6-(2-(2-aminopyrimidin-5-yl)pyridin-4-yloxy)benzo[d]thiazol-2-ylamino)cyclohexanol]
- inhibition at 1 µM [1]: 0%
- inhibition at 1 µM ([2]; HEK293H cells): 84%
- inhibition at 1 µM [3]: 100%
- inhibition at 1 µM [4]: 13%
- inhibition at 1 µM ([5]; MCSF dependent MNFS60 cells): 67%

Structure (SMILES): CNC(=O)c1cc(Oc2ccc3nc(NC4CCCc5ccccc54)oc3c2)ccn1 (centres unmarked) [Compound 104, 4-[2-(1,2,3,4-Tetrahydro-naphthalen-1-ylamino)-benzooxazol-6-yloxy]-pyridine-2-carboxylic acid methylamide]
- inhibition at 1 µM [1]: 10%
- inhibition at 1 µM ([2]; HEK293H cells): 63%
- inhibition at 1 µM [3]: 99%
- inhibition at 1 µM [4]: 18%
- inhibition at 1 µM ([5]; MNFS60 cells): 47%

Structure (SMILES): CNC(=O)c1cc(Oc2ccc3nc(NCc4cccc(F)c4F)sc3c2)ccn1 [Compound 147, 4-[2-(2,3-Difluoro-benzylamino)-benzothiazol-6-yloxy]-pyridine-2-carboxylic acid methylamide]
- inhibition at 1 µM [1]: 0%
- inhibition at 1 µM ([2]; HEK293H cells): 97%
- inhibition at 1 µM [3]: 98%
- inhibition at 1 µM [4]: 90%
- inhibition at 1 µM ([5]; MNFS60 cells): 90%

Structure (SMILES): CNC(=O)c1cc(Oc2ccc3nc(NCc4ccc(OC)c(OC)c4Cl)oc3c2)ccn1 [Compound 117, 4-[2-(2-Chloro-3,4-dimethoxy-benzylamino)-benzooxazol-6-yloxy]-pyridine-2-carboxylic acid methylamide]
- inhibition at 1 µM [1]: 0%
- inhibition at 1 µM ([2]; HEK293H cells): 88%
- inhibition at 1 µM [3]: 100%
- inhibition at 1 µM [4]: 96%
- inhibition at 1 µM ([5]; MNFS60 cells): 61%

Structure (SMILES): CNC(=O)c1cc(Oc2ccc3nc(NC4CCCC(O)C4)sc3c2)ccn1 (centres unmarked) [Example 293, 4-(2-(3-hydroxycyclohexylamino)benzo[d]thiazol-6-yloxy)-N-methylpicolinamide]
- inhibition at 1 µM ([1]; compounds of Table 3): 0%
- inhibition at 1 µM ([2]; compounds of Table 3): 82%
- inhibition at 1 µM ([3]; compounds of Table 3): 100%
- inhibition at 1 µM ([4]; compounds of Table 3): 22%
- inhibition at 1 µM ([5]; compounds of Table 3): 67%

Structure (SMILES): CCCn1cc(-c2cc(Oc3ccc4nc(N[C@@H](C)C5CCCCC5)sc4c3)ccn2)cn1 [Example 273, (S)-N-(1-cyclohexylethyl)-6-(2-(1-propyl-1H-pyrazol-4-yl)pyridin-4-yloxy)benzo[d]thiazol-2-amine]
- inhibition at 1 µM ([1]; compounds of Table 3): 14%
- inhibition at 1 µM ([2]; compounds of Table 3): 88%
- inhibition at 1 µM ([3]; compounds of Table 3): 100%
- inhibition at 1 µM ([4]; compounds of Table 3): 41%
- inhibition at 1 µM ([5]; compounds of Table 3): 95%
